{"source": "patent US20170298051A1", "about": "“ACTIVATOR OF ADIPONECTIN RECEPTOR” (THE UNIVERSITY OF TOKYO, priority 2013, published 2017)", "key": {"[1]": {"tested_on": "db/db mice", "assay": "Lifespan of db/db mice on a HF diet", "type": "in vivo", "conditions": "daily dose of 30 mg kg−1 body weight", "experimental": "Because the HF diet has been reported to shorten the lifespan, we examined whether orally administered AdipoRon could prolong the shortened lifespan due to a HF diet or not.\nThat is, the db/db mice were randomly divided into 3 groups: a normal chow group (Normal chow, n=20), high-fat group (High-fat, n=20) and high-fat and additionally AdipoRon group (High-fat+AdipoRon, n=20), which were treated with AdipoRon at a daily dose of 30 mg kg^−1 body weight. The survival rate was recorded daily."}, "[2]": {"tested_on": "db/db mice", "assay": "TG content, oxidative stress and inflammation in insulin target tissues in db/db mice", "type": "in vivo", "experimental": "Mitochondrial content assays were carried out as described previously^a,b, with slight modifications. For quantification of mitochondrial content, we used mtDNAas previously described^c.\n(§1) Real-time PCR was carried out according to the method described previously^a,b,c. Total RNA was prepared from cells or tissues with Trizol (Invitrogen) according to the manufacturer's instructions. We used a real-time PCR method to quantify the mRNAs^19, with slight modifications.\n(§2) Skeletal muscle homogenates were extracted, and tissue triglyceride content was determined as described previously^a-c, with some modifications. To investigate whether oxidative stress was increased, we measured lipid peroxidation, a marker of oxidative injury, as represented by plasma thiobarbituric acid reactive substance (TBARS) as described previously^4. Briefly, tissue samples were homogenized in a buffer solution containing 50 mM Tris-HCl (pH 7.4) and 1.15% KCl, and then centrifuged. The supernatant was used for the assay. The levels of lipid peroxidation in tissue homogenate and plasma were measured in terms of the amount of TBARS using the LPO test (Wako Pure Chemical Industries)."}, "[3]": {"tested_on": "AdipoR1-AMPK pathway and AdipoR2-PPARα pathway in the liver", "assay": "Liver: gene expression, TG content, TBARS in mice fed a HF diet", "type": "in vivo", "experimental": "as §1, §2"}, "[4]": {"target": "T1, AdipoR1 (Homo sapiens, UniProt Q96A54)", "T1 sequence (Q96A54 1-375)": "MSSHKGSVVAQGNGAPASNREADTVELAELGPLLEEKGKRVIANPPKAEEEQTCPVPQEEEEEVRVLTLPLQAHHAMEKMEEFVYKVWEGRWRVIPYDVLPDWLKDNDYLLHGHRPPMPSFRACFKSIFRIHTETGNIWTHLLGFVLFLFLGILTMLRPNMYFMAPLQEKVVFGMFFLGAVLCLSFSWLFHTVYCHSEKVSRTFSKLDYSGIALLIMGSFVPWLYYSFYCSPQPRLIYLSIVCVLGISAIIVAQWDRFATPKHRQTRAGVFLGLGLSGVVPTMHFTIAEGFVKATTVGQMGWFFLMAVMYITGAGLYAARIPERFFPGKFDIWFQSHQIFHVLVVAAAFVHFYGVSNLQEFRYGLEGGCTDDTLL", "assay": "Surface plasmon resonance, affinity for AdipoR1", "type": "binding", "set-up": "made in house", "conditions": "SPR", "experimental": "Surface plasmon resonance measurements were performed by a BIAcore X100 system (GE Healthcare) and sensor chip SA (GE Healthcare). Human AdipoR1 and AdipoR2 were expressed with the baculovirus system, and purified to homogeneity. The AdipoR1 and AdipoR2 samples were then reconstituted into egg-phosphatidylcholine liposomes containing biotinyl phosphatidylethanolamine (Avanti), as previously reported^a. Mouse full-length adiponectin was generated as previously described^b,c,d,e. AdipoR1 and AdipoR2 were immobilized onto a sensor chip SA to levels of 2,500-3,000 response units (RU) using standard immobilization protocols (GE Healthcare).\nExperiments were performed at 25° C. using AdipoRon (0.49-31.25 μM) and adiponectin (1.5 ng-3.75 μg) and using electrophoresis buffer (20 mM Hepes (pH 7.4), 200 mM NaCl, 10% glycerol, […] surfactant P20). Biacore X100 Evaluation Software was used to determine the equilibrium dissociation constant (KD) of the compound or proteins."}, "[5]": {"assay": "Measurement of plasma concentrations of AdipoRon", "type": "in vivo, C57BL/6 mice", "conditions": "C57BL/6, mouse, C57B6 WT mice, oral 50 mg/kg, read-out: maximal concentration (Cmax) in plasma", "experimental": "We measured the plasma concentrations of AdipoRon by HPLC and TSQ Quantum Ultra (ThermoFisher) in C57BL/6 mice orally administered with 50 mg of AdipoRon per kg bodyweight. For quantitative analyses, 20 μl of plasma was mixed with acetonitrile. The mixture was mixed vigorously for 30 sec and then centrifuged at 10,000 rpm for 3 min at 4° C. An aliquot of the supernatant was injected into the quantitative LC/MS system. Quantitative analyses were performed using an Accela HPLC system (ThermoFisher). The liquid chromatographic separations were carried out by using syncronis C18, 150×2.1 mm, 3 μm. Column temperature was held at 40° C. The flow rate was 0.2 ml/min. Elution solvent A was 0.1% formic acid in water and solvent B was 0.1% formic acid in methanol. The chromatographic conditions were as follows: 0-5 min 45% A/55% B; 5-6.5 min 5% A/95%B, 6.5-10 min 45%A/55%B. A typical injection volume was 3 μl. Quantitative analyses were performed using a TSQ Quantum Ultra triple-stage quadrupole mass spectrometer. Electro-spray ionization in positive ion mode (ESI+) was used for ionization and selective reaction monitoring (SRM) mode was chosen for detection. The optimized precursor ions pairs were m/z 429.251→91.057 for AdipoRon. […]"}, "[6]": {"tested_on": "white adipose tissue (WAT)", "assay": "White adipose tissue (WAT): inflammation and macrophage markers in mice fed a HF diet", "type": "in vivo", "experimental": "as §1, §2"}, "[7]": {"tested_on": "mice fed with a HF diet", "assay": "Treadmill exercise endurance in mice fed a HF diet", "type": "in vivo", "experimental": "The treadmill exercise test regimen was 15 m/min for 20 min. Exercise endurance was assessed by dividing 20 min by the number of times a mouse was unable to avoid electrical shocks."}, "[8]": {"conditions": "Adipor1/r2 double-knockout mice fed with a HF diet"}}, "data": [{"compound": "O=C(COc1ccc(C(=O)c2ccccc2)cc1)NC1CCN(Cc2ccccc2)CC1", "note": "[Compound 73, 2-(4-benzoyl-phenoxy)-N-(1-benzylpiperidin-4-yl)acetamide]", "values": [{"measurement": "lifespan", "setting": "[1]", "result": "significantly rescued the shortened lifespan"}, {"measurement": "TG content in the liver", "setting": "[2]", "result": "significantly reduced TG content"}, {"measurement": "expression levels of genes encoding pro-inflammatory cytokines in the liver", "setting": "[2]", "result": "reduced expression levels"}, {"measurement": "expression levels of genes encoding pro-inflammatory cytokines, macrophage markers, M1 macrophage markers in the WAT", "setting": "[2]", "result": "reduced the expression levels"}, {"measurement": "expression of Pparα and its target genes in the liver", "setting": "[2]", "result": "increased the expression"}, {"measurement": "expressions of Ppargc1a, Pck1 and G6pc in the liver", "setting": "[2]", "result": "significantly decreased expressions"}, {"measurement": "oxidative stress in the liver", "setting": "[2]", "result": "significantly reduced"}, {"measurement": "TG content and TBARS in skeletal muscles", "setting": "[2]; oral", "result": "decreased TG content and TBARS"}, {"measurement": "levels of Acadm and Sod2 in skeletal muscles", "setting": "[2]; oral", "result": "significantly increased"}, {"measurement": "levels of genes involved in mitochondrial biogenesis functions and DNA content in skeletal muscles", "setting": "[2]; oral", "result": "significantly increased"}, {"measurement": "effect on TG content and TBARS in the liver", "setting": "[3]; [8]", "result": "such effect was not observed"}, {"measurement": "expression level of genes encoding pro-inflammatory cytokines in the liver", "setting": "[3]; [8]", "result": "such effect was not observed"}, {"measurement": "expressions of Ppargc1a and G6pc in the liver", "setting": "[3]; [8]", "result": "such effect was not observed"}, {"measurement": "expression levels of Pparα and its target genes (Acox1, Ucp2, Cat) in the liver", "setting": "[3]; WT mice fed a HF diet", "result": "increased the expression levels"}, {"measurement": "TG content in the liver", "setting": "[3]; WT mice fed with a HF diet", "result": "significantly reduced TG content"}, {"measurement": "expression level of genes encoding pro-inflammatory cytokines (Tnf, Ccl2) in the liver", "setting": "[3]; WT mice fed with a HF diet", "result": "reduced the expression level"}, {"measurement": "expressions of Ppargc1a and G6pc in the liver", "setting": "[3]; WT mice fed with a HF diet", "result": "significantly decreased the expressions"}, {"measurement": "oxidative stress, as measured by TBARS, in the liver", "setting": "[3]; WT mice fed with a HF diet", "result": "significantly reduced"}, {"measurement": "Rmax", "setting": "[4]", "result": 14.6, "unit": "RU"}, {"measurement": "Kd", "setting": "[4]; 25° C., read-out: equilibrium dissociation constant (KD)", "result": 1800, "unit": "nM"}, {"measurement": "Cmax", "setting": "[5]", "result": 11.8, "unit": "µM"}, {"measurement": "changes of macrophage markers in the WAT", "setting": "[6]; Adipor1/r2 double-knockout mice", "result": "these changes were not observed"}, {"measurement": "expression levels of genes encoding pro-inflammatory cytokines in the WAT", "setting": "[6]; [8]", "result": "such effect was not observed"}, {"measurement": "expression levels of genes encoding pro-inflammatory cytokines (Tnf, Il6, Ccl2) in the WAT", "setting": "[6]; WT mice fed with a HF diet", "result": "reduced the expression levels"}, {"measurement": "levels of macrophage markers such as TBARS and F4/80 (Emr1), M1 marker CD11c (Itgax) in the WAT", "setting": "[6]; WT mice fed with a HF diet", "result": "reduced the levels"}, {"measurement": "levels of markers for alternatively activated M2 macrophages such as CD206 (Mrc1) in the WAT", "setting": "[6]; WT mice fed with a HF diet", "result": "not affect the levels"}, {"measurement": "exercise endurance", "setting": "[7]; [8]", "result": "but not in Adipor1/r2 double-knockout mice"}, {"measurement": "exercise endurance", "setting": "[7]; WT mice fed with a HF diet", "result": "significantly increased exercise endurance"}]}]}
